Measured values: ChEMBL document CHEMBL1811792, “Ligand-based modelling followed by synthetic exploration unveil novel glycogen phosphorylase inhibitory leads” (Bioorg Med Chem, 2011)
pIC50: −log10 of the molar value.

How the values were obtained:
[1] = target: T1, Glycogen phosphorylase, muscle form (Oryctolagus cuniculus) (UniProt P00489); experiment: Inhibition of rabbit muscle glycogen phosphorylase […] assessed as release of phosphate from glucose-1- phosphate at 10 uM after 20 mins
T1 sequence (whole entry): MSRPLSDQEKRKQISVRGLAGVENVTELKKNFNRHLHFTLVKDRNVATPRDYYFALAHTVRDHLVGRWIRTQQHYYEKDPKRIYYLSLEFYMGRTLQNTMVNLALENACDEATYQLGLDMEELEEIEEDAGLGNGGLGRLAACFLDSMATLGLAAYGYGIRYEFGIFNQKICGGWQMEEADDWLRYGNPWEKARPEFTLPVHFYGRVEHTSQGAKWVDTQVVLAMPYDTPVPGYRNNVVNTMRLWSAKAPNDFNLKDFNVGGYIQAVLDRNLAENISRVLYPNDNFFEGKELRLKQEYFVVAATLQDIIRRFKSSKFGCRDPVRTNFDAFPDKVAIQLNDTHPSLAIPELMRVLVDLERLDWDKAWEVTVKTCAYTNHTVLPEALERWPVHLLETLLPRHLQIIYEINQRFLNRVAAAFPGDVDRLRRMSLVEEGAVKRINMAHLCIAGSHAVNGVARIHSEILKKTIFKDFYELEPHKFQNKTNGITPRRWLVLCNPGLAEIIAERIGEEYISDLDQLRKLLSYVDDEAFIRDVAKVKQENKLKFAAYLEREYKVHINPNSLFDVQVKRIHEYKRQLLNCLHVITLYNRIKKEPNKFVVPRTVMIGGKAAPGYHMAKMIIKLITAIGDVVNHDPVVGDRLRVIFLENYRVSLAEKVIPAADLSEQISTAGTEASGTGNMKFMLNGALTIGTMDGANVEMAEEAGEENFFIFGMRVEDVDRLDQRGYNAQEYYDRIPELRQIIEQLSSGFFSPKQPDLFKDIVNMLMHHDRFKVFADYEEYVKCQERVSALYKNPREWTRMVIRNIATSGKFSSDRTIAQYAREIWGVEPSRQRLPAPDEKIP

[2] = target: T2, Glycogen phosphorylase, muscle form (Oryctolagus cuniculus, UniProt P00489); experiment: Inhibition of rabbit muscle glycogen phosphorylase […] assessed as release of phosphate from glucose-1- phosphate after 20 mins
T2 sequence (P00489 whole entry): T1 sequence (whole entry)

Compound | inhibition [1] | pIC50 [2]
COc1ccc2cc(-c3ccc(OC)c(OC)c3)c(=O)oc2c1 | 24% | 
C/C=C/c1cc(OC)c2c(c1)[C@H](C)[C@@H](c1ccc(O)c(OC)c1)O2 | 8% | 
CSc1ccc(NC(=O)C2CCCCC2C(=O)O)cc1 (stereo unspecified) | 17% | 
COc1ccccc1NC(=O)C(=O)Nc1ccccn1 | 5% | 
CN(C)c1ccc(/C=C/C(=O)c2cc(Cl)ccc2O)cc1 | 25% | 
O=C(CC(=O)NCc1ccccc1)NCc1ccccc1 | 1% | 
COC(=O)c1ccccc1NC(=O)Nc1ccc(SC)cc1 | 7% | 
CCOC(=O)C(=O)CC(=O)c1ccc(OC)cc1 | 34% | 

More lines, now with the values ahead:

inhibition [1] | pIC50 [2] | Compound
36% |  | CSc1cccc(NC(=O)Nc2ccccc2C(N)=O)c1
22% |  | CCOc1ccc(NC(=O)c2cc3ccccc3cc2O)cc1
42% | 5.12 | Cc1cc(S(=O)(=O)Nc2nnc3c4ccccc4ccn23)c(S)cc1Cl
45% | 5.16 | Cc1cc(S(=O)(=O)Nc2nc3ccccc3[nH]2)c(S)cc1Cl
12% |  | COC(=O)c1ccccc1NC(=O)Nc1cccc(OC)c1
4% |  | Cc1cccc(NC(=O)CC(=O)Nc2cccc(C)c2)c1
17% |  | CSc1ccc(NC(=O)Nc2ccccc2C(N)=O)cc1
49% | 4.78 | Cc1ccc(S(=O)(=O)CC2CCc3ccccc3C2=O)cc1 (stereo unspecified)
55% | 5.27 | Cc1ccccc1NC(=O)C(=O)Nc1ccccc1C
2% |  | Cc1ccccc1NC(=O)CC(=O)Nc1ccccc1C
38% |  | NC(=O)c1ccccc1NC(=O)COc1ccc(Cl)cc1
26% |  | O=C1Oc2ccccc2N/C1=C/C(=O)c1ccc(Cl)cc1
53% | 5.23 | Cc1cc(S(=O)(=O)Nc2nnc3c(C(F)(F)F)cc(Cl)cn23)c(S)cc1Cl
